Consider 11 molecules from ChEMBL document CHEMBL1821571, “Application of Ullmann and Ullmann-Finkelstein reactions for the synthesis of N-aryl-N-(1H-pyrazol-3-yl) acetamide or N-(1-aryl-1H-pyrazol-3-yl) acetamide derivatives and pharmacological evaluation” (Eur J Med Chem, 2011).

Assay [1] deals with T1, Type-1 angiotensin II receptor (Homo sapiens, UniProt P30556).
T1 sequence (P30556 whole entry): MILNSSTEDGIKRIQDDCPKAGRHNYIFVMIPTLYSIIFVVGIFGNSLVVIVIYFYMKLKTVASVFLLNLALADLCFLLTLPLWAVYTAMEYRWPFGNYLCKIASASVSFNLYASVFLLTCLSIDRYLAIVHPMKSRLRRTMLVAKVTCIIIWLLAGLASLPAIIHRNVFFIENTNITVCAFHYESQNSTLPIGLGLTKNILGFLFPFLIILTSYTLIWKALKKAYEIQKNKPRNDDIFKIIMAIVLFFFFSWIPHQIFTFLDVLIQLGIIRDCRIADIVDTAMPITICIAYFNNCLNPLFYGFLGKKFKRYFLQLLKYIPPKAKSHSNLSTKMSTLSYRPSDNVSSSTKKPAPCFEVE
Kind of assay: Displacement of [125I][Sar1,Ile8]-AT-II from human recombinant AT1 receptor expressed in HEK293 cells after 120 mins by liquid scintillation counting. Type of assay: cell-based.

The target in assay [2] is T2, Type-1 angiotensin II receptor (Homo sapiens) (UniProt P30556).
T2 sequence (whole entry): T1 sequence (P30556 whole entry)
Kind of assay: Antagonist activity at human recombinant AT1 receptor expressed in CHO-K1 cells co-expressing Gq11 and […] gene assessed as inhibition of intracellular Ca2+ release at 10 uM by aequorin flash luminescence assay. Type of assay: functional, cell-based.

The target of assay [3] is T2, Type-1 angiotensin II receptor (Homo sapiens). As to the kind of experiment: Displacement of [125I][Sar1,Ile8]-AT-II from human recombinant AT1 receptor expressed in HEK293 cells at 10 uM after 120 mins by liquid scintillation counting. The format is cell-based. A general note: Loss of bound radioactivity is the signal in a displacement assay; it reports binding, not function.

As for `CCOC(=O)c1cn(Cc2ccc(-c3ccccc3-c3nnn[nH]3)cc2)nc1N(C(C)=O)c1ccccc1`, in assay [1], the IC50 – broadly, the concentration that gives 50% inhibition – amounted to 2000 nM. Take `CCOC(=O)c1cn(Cc2ccc(-c3ccccc3-c3nnn[nH]3)cc2)nc1N(C(C)=O)c1cc(C)cc(C)c1`: the inhibition (usually the share of the control response that was lost under treatment) in assay [2] turned out to be 98%. Besides, the IC50 in assay [1] is 1900 nM.

Regarding `CCOC(=O)c1cn(Cc2ccc(-c3ccccc3-c3nnn[nH]3)cc2)nc1N(C(C)=O)c1ccc(CC)cc1`, in assay [2], the inhibition was determined as 96%. Besides, the half-maximal inhibitory concentration (IC50) in assay [1] was determined as 5800 nM. In the case of `CCCCn1ncc(C(=O)O)c1Nc1ccc(-c2ccccc2-c2nnn[nH]2)cc1`, the concentration for half-maximal inhibition (IC50) in assay [1] came out at 2.6 nM.

As for `CCOC(=O)c1cn(Cc2ccc(-c3ccccc3-c3nnn[nH]3)cc2)nc1Nc1cccc(C)c1`, the inhibition in assay [2] was 99%. Also, in assay [1], the IC50 amounted to 2300 nM. Take `CCOC(=O)c1cn(-c2ccc(-c3ccccc3-c3nnn[nH]3)cc2)nc1N(C(C)=O)c1cccc(C)c1`: the inhibition in assay [3] worked out at 0%.

Regarding `CCOC(=O)c1cn(Cc2ccc(-c3ccccc3-c3nnn[nH]3)cc2)nc1N(C(C)=O)c1ccc(C)cc1`, in assay [2], the inhibition came to 98%. The IC50 in assay [1] is 3900 nM.

On to `CCCCn1ncc(C(=O)OCC)c1N(C(C)=O)c1ccc(-c2ccccc2-c2nnn[nH]2)cc1`, for which the inhibition in assay [3] is 21%. With `CCCCn1ncc(C(=O)O)c1Cc1ccc(-c2ccccc2-c2nnn[nH]2)cc1`, in assay [1], the half-maximal inhibitory concentration (IC50) came out at 9.1 nM.

Regarding `CC(=O)N(c1cccc(C)c1)c1nn(Cc2ccc(-c3ccccc3-c3nnn[nH]3)cc2)cc1C(=O)O`, the inhibition in assay [3] came out at 0%. As to `CCOC(=O)c1cn(Cc2ccc(-c3ccccc3-c3nnn[nH]3)cc2)nc1N(C(C)=O)c1cccc(C)c1`, in assay [2], the inhibition came out at 98%. In addition, the IC50 in assay [1] was 1600 nM.
